{"source": "patent US11246314B2", "about": "“Trichome and pistil maturing formulation” (priority 2015, dated 2022)", "format_in_all_cases": "in vivo", "conditions_in_all_cases": "in words", "key": {"[1]": {"test_system": "trichomes of Cannabis plants", "experiment": "Trichome maturation on sprayed Cannabis plants", "description": "(§1) Trials were done with sesame oil alone, in place of bud finisher and bud shield embodiments.\n(§2) Add all ingredients to a gallon of water 7. Shake or mix well. Pour the final mixture 8 through a double mesh screen 41, into a convenient applicator such as a spray bottle 9 shown in FIG. 6. Apply directly to plants 10 over and under the leaves and flowers and upon the soil. Plant foliage should be sprayed on all surfaces until the solution is dripping off. Spray every 1-7 days as preferred as illustrated in FIG. 7."}, "[2]": {"test_system": "pistils of Cannabis plants", "experiment": "Pistil maturation on sprayed Cannabis plants", "description": "as §1, §2"}, "powdery mildew": {"test_system": "powdery mildew", "experiment": "Control of powdery mildew, mold and mildew on plants", "description": "as §1"}}, "data": [{"smiles": "O=C([O-])O.[K+]", "note": "[Potassium bicarbonate]", "values": [{"measurement": "effect on trichome maturation", "setting": "[1]", "result": "little to no effect"}, {"measurement": "effect on pistil maturation", "setting": "[2]", "result": "fully matures pistils quickly"}, {"measurement": "efficacy against powdery mildew / mold and mildew", "setting": "powdery mildew", "result": "very effective"}]}]}
